Results from ChEMBL document CHEMBL4382251, “A Pair of Enantiomeric Bis- seco-abietane Diterpenoids from Cryptomeria fortunei” (J Nat Prod, 2018).
pIC50: −log10 of the molar value.

What was measured:
Format in all cases: functional, cell-based
HL-60 = test: Antiproliferative activity against human HL60 cells after 72 hrs by CCK8 assay; settings: HL-60, 72 h
A549 = test: Antiproliferative activity against human A549 cells after 72 hrs by sulforhodamine B assay; settings: A549, 72 h
SGC-7901 = test: Antiproliferative activity against human SGC7901 cells after 72 hrs by sulforhodamine B assay; settings: SGC-7901, 72 h

| SMILES | pIC50 (HL-60) | pIC50 (A549) | pIC50 (SGC-7901) |
| --- | --- | --- | --- |
| CC(=O)Oc1cc2c(CC[C@H](O)C(C)(C)O)c(C)ccc2cc1C(C)C | 4.66 | 4.30 | 4.34 |
| Cc1ccc(/C=C(\C(=O)O)C(C)C)c2c1CC[C@@H](C(C)(C)O)OC2=O | < 4.00 | < 4.00 | < 4.00 |
| CC(=O)Oc1cc2c(cc1C(C)C)C(=O)C=C1C(C)(C)CCCC12C (single isomer, unassigned) | 4.59 | 4.57 | 4.64 |
| CC(=O)Oc1cc2c(CC[C@@H]3OC(C)(C)OC3(C)C)c(C)ccc2cc1C(C)C | 4.80 | 4.16 | 4.05 |
| CC(=O)Oc1cc2c(CCC=C(C)C)c(C)ccc2cc1C(C)C | 4.68 | 4.59 | 4.46 |
| COc1cc2c(cc1C(C)C)C(=O)C=C1C(C)(C)CCCC12C (single isomer, unassigned) | < 4.00 | < 4.00 | < 4.00 |
| Cc1ccc2cc(C(C)C)c(O)cc2c1CC[C@H]1OC(C)(C)OC1(C)C | 4.31 | 4.63 | 4.48 |
| CC(=O)Oc1cc2c(CC[C@H]3OC(C)(C)OC3(C)C)c(C)ccc2cc1C(C)C | 4.76 | 4.54 | 4.44 |
| Cc1ccc(/C=C(\C(=O)O)C(C)C)c2c1CC[C@H](C(C)(C)O)OC2=O | < 4.00 | < 4.00 | < 4.00 |
| Cc1ccc2cc(C(C)C)c(O)cc2c1CC[C@@H]1OC(C)(C)OC1(C)C | 4.34 | 4.58 | 4.50 |
| CC(=O)Oc1cc2c(CC[C@@H](O)C(C)(C)O)c(C)ccc2cc1C(C)C | 4.39 | 4.31 | 4.32 |
